Measured values taken from ChEMBL document CHEMBL4229572, “VU6007477, a Novel M1 PAM Based on a Pyrrolo[2,3-b]pyridine Carboxamide Core Devoid of Cholinergic Adverse Events” (ACS Med Chem Lett, 2018).
Positions count from the first letter of the chain named.

Experiments:
[1] = Ratio of unbound brain to plasma concentration in C57BL/6J mouse at 100 mg/kg, ip after 1 hr by LC-MS/MS analysis; assay type: ADME, organism-based; details: brain and plasma, read-out: K(p,uu,brain)
[2] = Protein binding in rat brain assessed as unbound fraction; assay type: ADME, tissue-based
[3] = Total brain to plasma partition coefficient, Kp in C57BL/6J mouse at 100 mg/kg, ip after 1 hr by LC-MS/MS analysis; assay type: ADME, organism-based; details: brain and plasma
[4] = target: T1, Muscarinic acetylcholine receptor M2 (Homo sapiens, UniProt P08172); assay: Positive allosteric modulation of human M2 receptor expressed in CHO cells co-expressing Gqi5 assessed as increase in acetylcholine-induced calcium mobilization pretreated for 2.5 mins followed by acetylcholine addition and measured after 1 min by Fluo-4-AM dye based assay; assay type: functional, cell-based
T1 sequence (P08172 whole entry): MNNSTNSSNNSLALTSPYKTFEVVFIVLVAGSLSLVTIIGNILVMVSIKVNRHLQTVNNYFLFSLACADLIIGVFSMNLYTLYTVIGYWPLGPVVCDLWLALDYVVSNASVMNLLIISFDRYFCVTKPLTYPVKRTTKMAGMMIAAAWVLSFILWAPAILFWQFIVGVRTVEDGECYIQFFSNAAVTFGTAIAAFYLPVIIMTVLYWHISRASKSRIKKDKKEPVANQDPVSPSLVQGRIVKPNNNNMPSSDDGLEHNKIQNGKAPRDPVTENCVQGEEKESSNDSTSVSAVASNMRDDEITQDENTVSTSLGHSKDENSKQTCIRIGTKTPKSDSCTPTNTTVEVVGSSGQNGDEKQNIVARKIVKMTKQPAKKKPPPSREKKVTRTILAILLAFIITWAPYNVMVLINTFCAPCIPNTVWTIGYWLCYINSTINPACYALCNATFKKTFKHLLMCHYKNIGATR

P-gp = assay: Substrate activity at P-gp (unknown origin) assessed as efflux ratio of permeability; assay type: ADME; details: human, not told
[5] = target: T2, Muscarinic acetylcholine receptor M1 (Rattus norvegicus, UniProt P08482); assay: (§1) Positive allosteric modulation of rat M1 receptor expressed in CHO cells assessed as increase in acetylcholine-induced calcium mobilization pretreated for 2.5 mins followed by acetylcholine addition and measured after 1 min by Fluo-4-AM dye based assay; assay type: functional, cell-based; details: read-out: EC50
T2 sequence (P08482 whole entry): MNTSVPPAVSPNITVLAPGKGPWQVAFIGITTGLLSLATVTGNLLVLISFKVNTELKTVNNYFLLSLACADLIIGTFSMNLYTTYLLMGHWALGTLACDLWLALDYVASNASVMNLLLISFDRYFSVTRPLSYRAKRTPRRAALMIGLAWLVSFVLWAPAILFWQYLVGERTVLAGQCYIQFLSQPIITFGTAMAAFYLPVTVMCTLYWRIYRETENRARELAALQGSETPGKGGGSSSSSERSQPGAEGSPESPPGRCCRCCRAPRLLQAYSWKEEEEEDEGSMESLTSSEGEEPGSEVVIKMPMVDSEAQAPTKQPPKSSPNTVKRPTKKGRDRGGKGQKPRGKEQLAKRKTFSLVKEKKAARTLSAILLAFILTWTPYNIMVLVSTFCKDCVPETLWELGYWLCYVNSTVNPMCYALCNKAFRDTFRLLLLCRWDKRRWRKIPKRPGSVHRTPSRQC

[6] = target: T3, Muscarinic acetylcholine receptor M1 (Rattus norvegicus) (UniProt P08482); assay: as §1; assay type: functional, cell-based
T3 sequence (whole entry): T2 sequence (P08482 whole entry)

[7] = target: T4, Muscarinic acetylcholine receptor M1 (Homo sapiens, UniProt P11229); assay: Agonist activity at human M1 receptor expressed in CHO cells assessed as increase in calcium mobilization measured after 2.5 mins by Fluo-4-AM dye based assay; assay type: functional, cell-based
T4 sequence (P11229 whole entry): T2 sequence (P08482 whole entry) with V5A, S254T, S309P, K320R, G337A, V413I

Kp uu at 1 h [1]: 0.18
fraction unbound [2]: 0.08
Kp at 1 h [3]: 0.16
EC50 [4]: > 30000 nM
efflux ratio (P-gp): 4.5
EC50 [5]: 230 nM
%max [6]: 93%
pKb [6]: 4.82
EC50 [7]: 324 nM
SMILES: Cn1cc(-c2ccc(Cc3cc(C(=O)NC4CCOCC4)nc4c3ccn4C)cn2)cn1
